Data from publication PMC8361756, “Treatment of Cardiovascular Dysfunction With PDE5-Inhibitors – Temperature Dependent Effects on Transport and Metabolism of cAMP and cGMP” (Frontiers in Physiology, 2021).
Where two headings read alike, the source gives them in different places.

How the values were obtained:
PDE3 = settings: for IC25–IC75 interval PDE3: concentration needed to increase inhibition from 25% to 75%; for IC50: read-out: IC50 PDE3, 5 μM cAMP, 30 min; for Ki: read-out: Ki PDE3-inhibition, Cheng-Prusoff from IC50
Experimental: (§1) The assays were performed in triplicates at three different days. […] The reaction was started by adding either a solution containing 0.016 units/μg protein of PDE3 (Abcam, Cambridge United Kingdom), or 0.022 units/μg protein of PDE5 (Sigma-Aldrich, St. Louis, MO, United States), to the Eppendorf tubes. Parallels for cAMP-metabolism included PDE3 only and parallels for cGMP-metabolism included PDE5 only. Control samples were free of drug and was either with or without PDE3 or PDE5. This was done to assure that only the relevant PDE was responsible for breakdown of the cyclic nucleotide, as no other enzyme nor cellular material was added to the incubations. The incubation time was 30 min (see Table 2). Reaction was stopped by adding methanol to the tubes. Internal standard of cGMP/GMP or cAMP/AMP (Sigma-Aldrich, St. Louis, MO, United States, Germany and Toronto Research Chemicals Inc., Toronto, ON, Canada) were added to each sample. Five samples contained only known concentrations of cGMP/GMP or cAMP/AMP and served as calibrators. Samples were analyzed for cGMP/GMP and cAMP/AMP content, using MS.

PDE5 = PDE5 (Homo sapiens, UniProt O76074); settings: concentration needed to increase inhibition from 25% to 75%
Experimental: as §1

cGMP-efflux (ABCC5) = cGMP-efflux (ABCC5) (Homo sapiens, UniProt O15440); assay type: biochemical; settings: for IC25–IC75 interval cGMP-efflux: concentration needed to increase inhibition from 25% to 75%
Experimental: (§2) Cellular extrusion was determined using the inside-out vesicle (IOV) method where erythrocytes from healthy, human donors were sampled. […] The erythrocytes were separated from plasma by centrifugation and washed. […] The membrane vesiculation was initiated by adding […] buffer to the cell suspension. After centrifugation, the suspension was forced through a syringe needle to enhance homogenization of the membranes. IOVs were separated from right side out vesicles (ROV) and unsealed erythrocyte membranes (ghosts) by ultracentrifugation overnight using a density gradient. The uppermost band was collected, washed, and resuspended. […] Batches of IOVs used in the parallels were made eight times, including blood from a total of 35 healthy donors.
(§3) The incubation solutions also included radioactive labeled [^3H]-cGMP and [^3H]-cAMP (Perkin Elmer, Boston, MA, United States), at a concentration of, respectively, 2 μM and 20 μM. […] Incubation time of 60 min was chosen to ensure sufficient quality of the samples for each parallel (Table 2). The transport was stopped by adding ice cold buffer. The IOVs were then filtered through a nitrocellulose membrane (Bio-Rad Laboratories, Feldkirchen, Germany), and the membrane was dried. The dried membranes were later added scintillation fluid and radioactivity was measured using a Packard TopCount NXT (Packard, Downers Grove, IL, United States).
(§4) Experiments determined total ATP-dependent cellular efflux of cGMP or cAMP from IOVs.

cAMP-efflux (ABCC4) = target: T1, cAMP-efflux (ABCC4) (Homo sapiens, UniProt O15439); test: biochemical; assay type: biochemical; settings: for Inhibition of cAMP-efflux: 1.00 nM to 1.00 mM; for Inhibition of cAMP-efflux / IC50: 60 min, IOV; for IC50: 20 μM [3H]-cAMP; for Ki: Cheng-Prusoff from IC50; for IC25–IC75 interval cAMP-efflux: concentration needed to increase inhibition from 25% to 75%
T1 construct: from tissue; host or cells: human erythrocyte membranes (inside-out vesicles), pooled donors
T1 sequence (O15439 1-1325): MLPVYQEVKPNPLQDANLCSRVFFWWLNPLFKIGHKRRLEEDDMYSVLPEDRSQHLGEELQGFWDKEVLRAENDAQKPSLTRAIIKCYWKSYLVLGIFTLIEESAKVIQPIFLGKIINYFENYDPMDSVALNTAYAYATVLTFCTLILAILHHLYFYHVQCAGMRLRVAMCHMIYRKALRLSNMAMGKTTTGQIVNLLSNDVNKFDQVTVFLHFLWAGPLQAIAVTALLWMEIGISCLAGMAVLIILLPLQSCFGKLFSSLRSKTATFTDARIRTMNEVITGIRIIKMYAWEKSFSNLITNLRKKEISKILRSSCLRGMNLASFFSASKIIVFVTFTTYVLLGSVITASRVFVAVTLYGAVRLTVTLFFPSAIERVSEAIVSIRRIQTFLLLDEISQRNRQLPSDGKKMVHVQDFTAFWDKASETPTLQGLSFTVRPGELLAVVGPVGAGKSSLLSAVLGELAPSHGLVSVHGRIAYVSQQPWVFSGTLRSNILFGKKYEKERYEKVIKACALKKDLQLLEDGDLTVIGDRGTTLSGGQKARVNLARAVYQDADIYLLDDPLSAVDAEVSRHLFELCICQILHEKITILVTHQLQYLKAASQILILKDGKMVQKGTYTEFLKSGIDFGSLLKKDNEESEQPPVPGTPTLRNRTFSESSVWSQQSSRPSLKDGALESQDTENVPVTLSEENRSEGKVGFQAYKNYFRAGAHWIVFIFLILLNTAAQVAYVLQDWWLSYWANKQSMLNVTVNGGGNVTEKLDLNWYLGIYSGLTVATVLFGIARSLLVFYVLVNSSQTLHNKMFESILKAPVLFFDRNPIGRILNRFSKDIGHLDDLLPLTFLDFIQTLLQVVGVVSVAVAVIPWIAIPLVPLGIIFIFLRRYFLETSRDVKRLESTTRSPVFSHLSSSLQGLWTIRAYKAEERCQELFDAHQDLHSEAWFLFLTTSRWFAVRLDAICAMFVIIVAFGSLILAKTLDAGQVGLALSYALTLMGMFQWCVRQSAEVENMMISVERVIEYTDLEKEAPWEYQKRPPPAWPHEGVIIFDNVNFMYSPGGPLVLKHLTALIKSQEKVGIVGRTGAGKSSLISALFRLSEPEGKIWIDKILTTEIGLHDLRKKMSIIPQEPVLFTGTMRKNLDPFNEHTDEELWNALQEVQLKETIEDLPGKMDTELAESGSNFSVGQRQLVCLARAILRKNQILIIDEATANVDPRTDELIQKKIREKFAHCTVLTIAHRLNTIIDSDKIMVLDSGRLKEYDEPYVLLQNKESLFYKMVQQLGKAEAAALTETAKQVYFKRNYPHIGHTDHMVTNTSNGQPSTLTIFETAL
Experimental: as §2, §3, §4

[1] = ref Walker (1999); cited from earlier work

cGMP-efflux (ABCC5), sequence (O15440 whole entry): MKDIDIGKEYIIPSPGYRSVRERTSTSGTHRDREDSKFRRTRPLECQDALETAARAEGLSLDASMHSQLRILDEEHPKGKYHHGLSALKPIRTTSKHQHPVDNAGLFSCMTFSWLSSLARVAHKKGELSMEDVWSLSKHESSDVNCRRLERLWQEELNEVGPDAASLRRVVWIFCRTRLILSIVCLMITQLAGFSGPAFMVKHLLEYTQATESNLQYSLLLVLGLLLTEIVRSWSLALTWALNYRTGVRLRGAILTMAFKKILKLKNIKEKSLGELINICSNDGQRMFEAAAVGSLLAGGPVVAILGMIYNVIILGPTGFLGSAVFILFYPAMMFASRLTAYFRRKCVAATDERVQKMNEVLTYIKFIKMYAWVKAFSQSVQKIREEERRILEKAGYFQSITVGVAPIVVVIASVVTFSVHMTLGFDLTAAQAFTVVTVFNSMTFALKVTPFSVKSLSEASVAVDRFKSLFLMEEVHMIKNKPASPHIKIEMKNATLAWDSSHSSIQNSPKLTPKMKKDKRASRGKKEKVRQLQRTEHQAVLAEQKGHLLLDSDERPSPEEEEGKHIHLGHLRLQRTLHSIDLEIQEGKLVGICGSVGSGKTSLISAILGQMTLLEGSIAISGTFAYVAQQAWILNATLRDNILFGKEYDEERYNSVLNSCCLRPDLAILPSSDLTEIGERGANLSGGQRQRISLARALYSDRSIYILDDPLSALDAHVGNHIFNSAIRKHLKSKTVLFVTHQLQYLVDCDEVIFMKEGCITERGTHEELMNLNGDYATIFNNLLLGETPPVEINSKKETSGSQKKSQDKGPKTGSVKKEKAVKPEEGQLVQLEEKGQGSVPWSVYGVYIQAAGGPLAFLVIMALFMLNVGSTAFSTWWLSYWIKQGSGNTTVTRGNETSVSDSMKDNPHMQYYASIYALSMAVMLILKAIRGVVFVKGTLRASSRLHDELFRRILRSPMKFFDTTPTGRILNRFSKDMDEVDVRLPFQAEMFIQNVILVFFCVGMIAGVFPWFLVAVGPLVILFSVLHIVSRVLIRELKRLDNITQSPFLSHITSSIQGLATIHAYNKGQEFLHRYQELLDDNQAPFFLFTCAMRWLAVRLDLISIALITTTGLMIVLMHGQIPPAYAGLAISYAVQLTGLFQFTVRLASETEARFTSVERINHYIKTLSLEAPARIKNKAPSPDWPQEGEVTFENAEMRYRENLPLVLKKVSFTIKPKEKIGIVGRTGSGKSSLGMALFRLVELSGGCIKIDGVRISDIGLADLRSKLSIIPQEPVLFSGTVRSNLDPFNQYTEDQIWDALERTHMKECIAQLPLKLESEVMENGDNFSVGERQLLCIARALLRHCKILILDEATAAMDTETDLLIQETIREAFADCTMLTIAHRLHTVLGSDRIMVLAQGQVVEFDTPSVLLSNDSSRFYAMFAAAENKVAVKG

CCCc1nc(C)c2c(=O)[nH]c(-c3cc(S(=O)(=O)N4CCN(CC)CC4)ccc3OCC)nn12 [Vardenafil]
IC25–IC75 interval PDE3 (PDE3; 20°C): 709 ± 105 µM | IC25–IC75 interval PDE3 (PDE3; 24°C): 148 ± 31.9 µM | IC25–IC75 interval PDE3 (PDE3; 28°C): 128 ± 35.9 µM | IC25–IC75 interval PDE3 (PDE3; 32°C): 107 ± 27.0 µM | IC25–IC75 interval PDE3 (PDE3; 34°C): 72.1 ± 3.24 µM | IC25–IC75 interval PDE3 (PDE3; 37°C): 61.0 ± 14.3 µM | IC50 (PDE3; 20°C): 73.4 ± 26.3 µM | IC50 (PDE3; 24°C): 55.5 ± 4.75 µM | IC50 (PDE3; 28°C): 32.7 ± 11 µM | IC50 (PDE3; 32°C): 40.5 ± 3.78 µM | IC50 (PDE3; 34°C): 24.9 ± 5.73 µM | IC50 (PDE3; 37°C): 16.5 ± 6.08 µM | Ki (PDE3; 20°C): 3.36 ± 1.21 µM | Ki (PDE3; 24°C): 2.54 ± 0.218 µM | Ki (PDE3; 28°C): 1.5 ± 0.505 µM | Ki (PDE3; 32°C): 1.85 ± 0.173 µM | Ki (PDE3; 34°C): 1.14 ± 0.263 µM | Ki (PDE3; 37°C): 0.757 ± 0.276 µM | IC25–IC75 interval PDE5 (PDE5; 20°C): 0.103 ± 0.027 µM | IC25–IC75 interval PDE5 (PDE5; 24°C): 0.074 ± 0.005 µM | IC25–IC75 interval PDE5 (PDE5; 28°C): 0.049 ± 0.016 µM | IC25–IC75 interval PDE5 (PDE5; 32°C): 0.062 ± 0.016 µM | IC25–IC75 interval PDE5 (PDE5; 34°C): 0.028 ± 0.012 µM | IC25–IC75 interval PDE5 (PDE5; 37°C): 0.059 ± 0.029 µM | IC25–IC75 interval cGMP-efflux (cGMP-efflux (ABCC5); 20°C): 28.1 ± 14.6 µM | IC25–IC75 interval cGMP-efflux (cGMP-efflux (ABCC5); 24°C): 13.0 ± 1.74 µM | IC25–IC75 interval cGMP-efflux (cGMP-efflux (ABCC5); 28°C): 10.6 ± 2.75 µM | IC25–IC75 interval cGMP-efflux (cGMP-efflux (ABCC5); 32°C): 18.0 ± 4.12 µM | IC25–IC75 interval cGMP-efflux (cGMP-efflux (ABCC5); 34°C): 19.2 ± 3.16 µM | IC25–IC75 interval cGMP-efflux (cGMP-efflux (ABCC5); 37°C): 12.6 ± 3.89 µM | Linear regression equation, IC50 inhibition of cGMP-efflux vs temperature (cGMP-efflux (ABCC5); not told): y = 9.64 − 0.098x | Inhibition of cAMP-efflux (cAMP-efflux (ABCC4); 20°C): neither of the drugs were able to inhibit cAMP-efflux | Inhibition of cAMP-efflux (cAMP-efflux (ABCC4); 24°C): neither of the drugs were able to inhibit cAMP-efflux | IC50 (cAMP-efflux (ABCC4); 28°C): 9.63 ± 5.79 µM | Ki (cAMP-efflux (ABCC4); 28°C): 5.84 ± 3.51 µM | IC25–IC75 interval cAMP-efflux (cAMP-efflux (ABCC4); 28°C): 17.3 ± 6.59 µM | IC50 (cAMP-efflux (ABCC4); 32°C): 13 ± 1.69 µM | Ki (cAMP-efflux (ABCC4); 32°C): 7.86 ± 1.02 µM | IC25–IC75 interval cAMP-efflux (cAMP-efflux (ABCC4); 32°C): 27.3 ± 6.19 µM | IC50 (cAMP-efflux (ABCC4); 34°C): 5.82 ± 0.685 µM | Ki (cAMP-efflux (ABCC4); 34°C): 3.53 ± 0.415 µM | IC25–IC75 interval cAMP-efflux (cAMP-efflux (ABCC4); 34°C): 19.9 ± 0.967 µM | IC50 (cAMP-efflux (ABCC4); 37°C): 5.85 ± 0.51 µM | Ki (cAMP-efflux (ABCC4); 37°C): 3.55 ± 0.311 µM | IC25–IC75 interval cAMP-efflux (cAMP-efflux (ABCC4); 37°C): 30.9 ± 6.82 µM | Linear regression equation, IC50 inhibition of cAMP-efflux vs temperature (cAMP-efflux (ABCC4); not told): y = 26.4 − 0.545x

CCCc1nn(C)c2c(=O)[nH]c(-c3cc(S(=O)(=O)N4CCN(C)CC4)ccc3OCC)nc12 [Sildenafil]
IC25–IC75 interval PDE3 (PDE3; 20°C): […] | IC25–IC75 interval PDE3 (PDE3; 20°C, listed as sildenafil): […] | IC25–IC75 interval PDE3 (PDE3; 24°C): […] | IC25–IC75 interval PDE3 (PDE3; 28°C): […] | IC25–IC75 interval PDE3 (PDE3; 32°C): […] | IC25–IC75 interval PDE3 (PDE3; 34°C): […] | IC25–IC75 interval PDE3 (PDE3; 37°C): […] | IC50 (PDE3; 20°C): […] | IC50 (PDE3; 24°C): […] | IC50 (PDE3; 28°C): […] | IC50 (PDE3; 32°C): […] | IC50 (PDE3; 34°C): […] | IC50 (PDE3; 37°C): […] | IC25–IC75 interval PDE5 (PDE5; 20°C): 0.132 ± 0.048 µM | IC25–IC75 interval PDE5 (PDE5; 20°C, listed as sildenafil): 0.132 ± 0.048 µM | IC25–IC75 interval PDE5 (PDE5; 24°C): 0.098 ± 0.012 µM | IC25–IC75 interval PDE5 (PDE5; 24°C, listed as sildenafil): 0.098 ± 0.012 µM | IC25–IC75 interval PDE5 (PDE5; 28°C): 0.083 ± 0.008 µM | IC25–IC75 interval PDE5 (PDE5; 32°C): 0.060 ± 0.006 µM | IC25–IC75 interval PDE5 (PDE5; 34°C): 0.055 ± 0.004 µM | IC25–IC75 interval PDE5 (PDE5; 37°C): 0.038 ± 0.000 µM | IC25–IC75 interval cGMP-efflux (cGMP-efflux (ABCC5); 20°C): 19.2 ± 8.45 µM | IC25–IC75 interval cGMP-efflux (cGMP-efflux (ABCC5); 24°C): 11.4 ± 4.73 µM | IC25–IC75 interval cGMP-efflux (cGMP-efflux (ABCC5); 28°C): 12.0 ± 1.96 µM | IC25–IC75 interval cGMP-efflux (cGMP-efflux (ABCC5); 32°C): 9.76 ± 3.99 µM | IC25–IC75 interval cGMP-efflux (cGMP-efflux (ABCC5); 34°C): 13.5 ± 1.74 µM | IC25–IC75 interval cGMP-efflux (cGMP-efflux (ABCC5); 37°C): 23.6 ± 9.08 µM | Inhibition of cAMP-efflux (cAMP-efflux (ABCC4); 20°C): neither of the drugs were able to inhibit cAMP-efflux | Inhibition of cAMP-efflux (cAMP-efflux (ABCC4); 24°C): neither of the drugs were able to inhibit cAMP-efflux | IC25–IC75 interval cAMP-efflux (cAMP-efflux (ABCC4); 28°C): 13.8 ± 3.85 µM | IC25–IC75 interval cAMP-efflux (cAMP-efflux (ABCC4); 32°C): 20.0 ± 4.27 µM | IC25–IC75 interval cAMP-efflux (cAMP-efflux (ABCC4); 34°C): 19.8 ± 1.82 µM | IC25–IC75 interval cAMP-efflux (cAMP-efflux (ABCC4); 37°C): 27.1 ± 9.36 µM | Protein binding [1]: 94–96%
